Measurements as given in patent US6608051B1, “Compositions and methods for treating blood” (MedPointe Healthcare Inc., priority 1999, dated 2003).

Key:
[1] = cited from earlier work
[2] = stability in the solid state; format: physicochemical; settings: stored at ambient conditions
[3] = solubility in aqueous solutions and organic solvents; format: physicochemical
[4] = pH of a saturated solution in deionized water; format: physicochemical
[5] = apparent partition coefficient between octanol and water; format: physicochemical; settings: buffered at pH 7.2

For `O=S1(=O)CCN(CN2CCS(=O)(=O)NC2)CN1` [taurolidine, 4,4′-methylenebis(tetrahydro-1,2,4-thiadiazine)-1,1,1′,1′,-tetraoxide], which “cumulative dose shown to be safe and well tolerated” value ([1]; cumulative doses, up to and exceeding) is on record?
Its value is ≥ 300 g.

And the “systemic dose shown to be safe and well tolerated” value ([1]; systemic doses)?
The value was “exceeding 40 g/day”.

And the “stability in the solid state” value [2]?
The value was “acceptable stability”.

What about the solubility ([3]; CHCl3) of the same compound?
Its solubility is “insoluble”.

What about the solubility ([3]; Dilute HCl) of the same compound?
Its solubility is “soluble”.

What about the solubility ([3]; Dilute NaOH) of the same compound?
Its solubility is “soluble”.

What about the solubility ([3]; EtOH) of the same compound?
The solubility was “sparingly soluble”.

What about the solubility ([3]; Water, at 20° C.) of the same compound?
The solubility was 1% at 20 °C.

And the “pH of a saturated solution” value [4]?
Its value is 7.4.

And the “apparent partition coefficient between octanol and water” value [5]?
Its value is “approximately 0.13”.
